Assay results: ChEMBL document CHEMBL4342418, “1,2,3-Triazole-containing hybrids as potential anticancer agents: Current developments, action mechanisms and structure-activity relationships” (Eur J Med Chem, 2019)

Key:
A549 [1] = experiment: cells; assay type: functional, cell-based; conditions: Homo sapiens
Description: Antiproliferative activity against human A549 cells by MTT assay

HBL-100 = experiment: Antiproliferative activity against human HBL100 cells by MTT assay; assay type: functional, cell-based
HeLa [2] = experiment: Antiproliferative activity against human HeLa cells by MTT assay; assay type: functional, cell-based
SW1573 = experiment: Antiproliferative activity against human SW1573 cells by MTT assay; assay type: functional, cell-based
T47D = experiment: Antiproliferative activity against human T47D cells by MTT assay; assay type: functional, cell-based
WiDr = experiment: Antiproliferative activity against human WiDr cells by MTT assay; assay type: functional, cell-based
K562 = experiment: Antiproliferative activity against human K562 cells assessed as reduction in cell viability after 24 hrs by MTT assay; assay type: functional, cell-based; conditions: K562, 24 h
PC-3 = experiment: Antiproliferative activity against human PC3 cells assessed as reduction in cell viability after 24 hrs by MTT assay; assay type: functional, cell-based; conditions: PC-3, 24 h
A-431 = experiment: Antiproliferative activity against human A431 cells assessed as reduction in cell viability after 24 hrs by MTT assay; assay type: functional, cell-based; conditions: A-431, 24 h
MDA-MB-231 [3] = experiment: Antiproliferative activity against human MDA-MB-231 cells assessed as reduction in cell viability after 24 hrs by MTT assay; assay type: functional, cell-based; conditions: MDA-MB-231, 24 h
COLO 205 = experiment: Antiproliferative activity against human COLO205 cells assessed as reduction in cell viability after 24 hrs by MTT assay; assay type: functional, cell-based; conditions: COLO 205, 24 h
A549 [4] = experiment: Antiproliferative activity against human A549 cells assessed as reduction in cell viability after 24 hrs by MTT assay; assay type: functional, cell-based; conditions: A549, 24 h
MCF7 [5] = experiment: Antiproliferative activity against human MCF7 cells assessed as reduction in cell viability after 48 hrs by SRB assay; assay type: functional, cell-based; conditions: MCF7, 48 h
HeLa [6] = experiment: Antiproliferative activity against human HeLa cells assessed as reduction in cell viability after 48 hrs by SRB assay; assay type: functional
HepG2 [7] = experiment: Antiproliferative activity against human HepG2 cells assessed as reduction in cell viability after 48 hrs by SRB assay; assay type: functional; conditions: HepG2, 48 h
IMR-32 = experiment: Antiproliferative activity against human IMR32 cells assessed as reduction in cell viability after 48 hrs by SRB assay; assay type: functional; conditions: IMR-32, 48 h
MCF7 [8] = experiment: cells; assay type: functional, cell-based; conditions: Homo sapiens
Description: Antiproliferative activity against human MCF7 cells by MTT assay

MDA-MB-231 [9] = experiment: Antiproliferative activity against human MDA-MB-231 cells by MTT assay; assay type: functional, cell-based
MCF-10A = experiment: Cytotoxicity against human MCF10A cells by MTT assay; assay type: cell-based
Lu1 = experiment: Antiproliferative activity against human Lu1 cells by MTT assay; assay type: functional, cell-based
HL-60 = experiment: Antiproliferative activity against human HL60 cells by MTT assay; assay type: functional, cell-based
P388 = experiment: Antiproliferative activity against mouse P388 cells by MTT assay; assay type: functional, cell-based
HepG2 [10] = experiment: Antiproliferative activity against human HepG2 cells by MTT assay; assay type: functional, cell-based
KB = experiment: Antiproliferative activity against human KB cells by MTT assay; assay type: functional, cell-based

COC(=O)c1coc([C@H](Cc2ccccc2)n2cc(CC3CC(O[Si](C)(C)C(C)(C)C)CC(C(C)C)C3)nn2)n1 (stereo partly drawn)
IC50 (A549 [1]): 3.1 to 88 µM | IC50 (HBL-100): 3.1 to 88 µM | IC50 (HeLa [2]): 3.1 to 88 µM | IC50 (SW1573): 3.1 to 88 µM | IC50 (T47D): 3.1 to 88 µM | IC50 (WiDr): 3.1 to 88 µM

CC(=O)c1ccc(-n2cc(CO[C@H]3O[C@@H]4O[C@@]5(C)O[C@]46[C@@H](CC[C@@H](C)[C@@H]6C[C@H]5O)[C@H]3C)nn2)cc1
IC50 (K562): 4.06 to 89.9 µM | IC50 (PC-3): 4.06 to 89.9 µM | IC50 (A-431): 4.06 to 89.9 µM | IC50 (MDA-MB-231 [3]): 4.06 to 89.9 µM | IC50 (COLO 205): 4.06 to 89.9 µM | IC50 (A549 [4]): 4.06 to 89.9 µM

COC(=O)c1coc(Cn2cc(CC3CC(CCc4ccccc4)CC(O[Si](C)(C)C(C)(C)C)C3)nn2)n1 (stereo not drawn)
IC50 (A549 [1]): 3.1 to 88 µM | IC50 (HBL-100): 3.1 to 88 µM | IC50 (HeLa [2]): 3.1 to 88 µM | IC50 (SW1573): 3.1 to 88 µM | IC50 (T47D): 3.1 to 88 µM | IC50 (WiDr): 3.1 to 88 µM

Fc1ccc(-n2ncc(OCc3cn(Cc4cccc(Cl)c4)nn3)c2-c2ccc(Cl)cc2)cc1
GI50 (MCF7 [5]): 1.8 to 9.7 µM | GI50 (HeLa [6]): 1.8 to 9.7 µM | GI50 (HepG2 [7]): 1.8 to 9.7 µM | GI50 (IMR-32): 1.8 to 9.7 µM

CCC(C)[C@@H](c1nc(C(=O)OC)co1)n1cc(CC2CC(CCc3ccccc3)CC(O[Si](C)(C)C(C)(C)C)C2)nn1 (stereo partly drawn)
IC50 (A549 [1]): 3.1 to 88 µM | IC50 (HBL-100): 3.1 to 88 µM | IC50 (HeLa [2]): 3.1 to 88 µM | IC50 (SW1573): 3.1 to 88 µM | IC50 (T47D): 3.1 to 88 µM | IC50 (WiDr): 3.1 to 88 µM

Cc1c(-n2nnc(-c3nn(-c4nncc5ccccc45)cc3C=O)c2C)cccc1C(F)(F)F
IC50 (MCF7 [8]): 6.8 to 27.6 µM | IC50 (MDA-MB-231 [9]): 6.8 to 27.6 µM | IC50 (MCF-10A): 21.9 to 25.3 µM

Cc1ccc(-n2cc(OCc3cn(Cc4ccccc4Cl)nn3)cn2)cc1
GI50 (MCF7 [5]): 1.8 to 9.7 µM | GI50 (HeLa [6]): 1.8 to 9.7 µM | GI50 (HepG2 [7]): 1.8 to 9.7 µM | GI50 (IMR-32): 1.8 to 9.7 µM

Fc1ccc(-n2ncc(OCc3cn(Cc4ccccc4)nn3)c2-c2ccc(Cl)cc2)cc1
GI50 (MCF7 [5]): 1.8 to 3.8 µM | GI50 (HeLa [6]): 1.8 to 3.8 µM | GI50 (HepG2 [7]): 1.8 to 3.8 µM | GI50 (IMR-32): 1.8 to 3.8 µM

CCCC1CC(Cc2cn(Cc3nc(C(=O)OC)co3)nn2)CC(O[Si](C)(C)C(C)(C)C)C1 (stereo not drawn)
IC50 (A549 [1]): 3.1 to 88 µM | IC50 (HBL-100): 3.1 to 88 µM | IC50 (HeLa [2]): 3.1 to 88 µM | IC50 (SW1573): 3.1 to 88 µM | IC50 (T47D): 3.1 to 88 µM | IC50 (WiDr): 3.1 to 88 µM

CCCC1CC(Cc2cn([C@H](c3nc(C(=O)OC)co3)C(C)CC)nn2)CC(O[Si](C)(C)C(C)(C)C)C1 (stereo partly drawn)
IC50 (A549 [1]): 3.1 to 88 µM | IC50 (HBL-100): 3.1 to 88 µM | IC50 (HeLa [2]): 3.1 to 88 µM | IC50 (SW1573): 3.1 to 88 µM | IC50 (T47D): 3.1 to 88 µM | IC50 (WiDr): 3.1 to 88 µM

C[C@H]1[C@@H](OCc2cn(-c3ccc(C#N)cc3)nn2)O[C@@H]2O[C@@]3(C)O[C@]24[C@H]1CC[C@@H](C)[C@@H]4C[C@H]3O
IC50 (K562): 4.06 to 89.9 µM | IC50 (PC-3): 4.06 to 89.9 µM | IC50 (A-431): 4.06 to 89.9 µM | IC50 (MDA-MB-231 [3]): 4.06 to 89.9 µM | IC50 (COLO 205): 4.06 to 89.9 µM | IC50 (A549 [4]): 4.06 to 89.9 µM

Cc1c(C(F)(F)F)cc(Cl)c(Cl)c1-n1nnc(-c2nn(-c3nncc4ccccc34)cc2C=O)c1C
IC50 (MCF7 [8]): 6.8 to 27.6 µM | IC50 (MDA-MB-231 [9]): 6.8 to 27.6 µM | IC50 (MCF-10A): 21.9 to 25.3 µM

O=[N+]([O-])c1ccc(Cn2cc(COc3cnn(-c4ccc(F)cc4)c3-c3ccc(Cl)cc3)nn2)cc1
GI50 (MCF7 [5]): 1.8 to 9.7 µM | GI50 (HeLa [6]): 1.8 to 9.7 µM | GI50 (HepG2 [7]): 1.8 to 9.7 µM | GI50 (IMR-32): 1.8 to 9.7 µM

CCCC1CC(Cc2cn([C@@H](Cc3ccccc3)c3nc(C(=O)OC)co3)nn2)CC(O[Si](C)(C)C(C)(C)C)C1 (stereo partly drawn)
IC50 (A549 [1]): 3.1 to 88 µM | IC50 (HBL-100): 3.1 to 88 µM | IC50 (HeLa [2]): 3.1 to 88 µM | IC50 (SW1573): 3.1 to 88 µM | IC50 (T47D): 3.1 to 88 µM | IC50 (WiDr): 3.1 to 88 µM

C[C@@H]1CC[C@H]2[C@@H](C)C(=O)O[C@@H]3O[C@@]4(C)CC[C@@H]1[C@]32OO4 [ARTEMISININ]
IC50 (K562): 39 to 68.8 µM | IC50 (PC-3): 39 to 68.8 µM | IC50 (A-431): 39 to 68.8 µM | IC50 (MDA-MB-231 [3]): 39 to 68.8 µM | IC50 (COLO 205): 39 to 68.8 µM | IC50 (A549 [4]): 39 to 68.8 µM

C[C@H]1[C@@H](O)O[C@@H]2O[C@@]3(C)CC[C@H]4[C@H](C)CC[C@@H]1[C@@]24OO3 [ARTENIMOL]
IC50 (MCF7 [8]): 39.9 to 84.3 µM | IC50 (Lu1): 39.9 to 84.3 µM | IC50 (HL-60): 39.9 to 84.3 µM | IC50 (P388): 39.9 to 84.3 µM | IC50 (K562): 42.4 to 52.6 µM | IC50 (PC-3): 42.4 to 52.6 µM | IC50 (A-431): 42.4 to 52.6 µM | IC50 (MDA-MB-231 [3]): 42.4 to 52.6 µM | IC50 (COLO 205): 42.4 to 52.6 µM | IC50 (A549 [4]): 42.4 to 52.6 µM | IC50 (HepG2 [10]): 63.7 µM | IC50 (KB): 95.3 µM

C[C@H]1[C@H](OC(=O)CCC(=O)O)O[C@@H]2O[C@@]3(C)CC[C@H]4[C@H](C)CC[C@@H]1[C@@]24OO3 [ARTESUNATE]
IC50 (HepG2 [10]): 59.4 µM | IC50 (KB): 78.5 µM

Cc1c2ccncc2c(C)c2c1[nH]c1ccccc12 [ELLIPTECINE]
IC50 (MCF7 [8]): 1.7 to 3.5 µM | IC50 (Lu1): 1.7 to 3.5 µM | IC50 (HL-60): 1.7 to 3.5 µM | IC50 (P388): 1.7 to 3.5 µM | IC50 (HepG2 [10]): 0.93 to 1.46 µM | IC50 (KB): 0.81 to 1.26 µM

Cc1cn([C@H]2C[C@H](N=[N+]=[N-])[C@@H](CO)O2)c(=O)[nH]c1=O [ZIDOVUDINE]
IC50 (HepG2 [10]): > 400 µM | IC50 (KB): > 400 µM
